Reference: ChEMBL document CHEMBL4229479, “Synthesis and evaluation of panaxatriol derivatives as Na+, K+-ATPase inhibitors” (Bioorg Med Chem Lett, 2018)

Target: Sodium/potassium-transporting ATPase
Assay: Inhibition of human Na+/K+-ATPase assessed as reduction in inorganic phosphate release from ATP incubated for 15 mins followed by ATP addition measured over 15 mins in presence of Na+/K+ by colorimetric method
Format: protein-complex assay
Details: not given

| IC50 | SMILES |
| --- | --- |
| 700 nM | CC1(C)CCC[C@](C)([C@H]2CC[C@]3(C)[C@@H]2C(=O)C[C@@H]2[C@@]4(C)CCC(=O)C(C)(C)[C@@H]4[C@@H](O)C[C@]23C)O1 |
| 410 nM | COC(=O)CC[C@@]1(C)CC(=O)C[C@]2(C)[C@@H]1C[C@@H](O)[C@@H]1[C@@H]([C@@]3(C)CCCC(C)(C)O3)CC[C@]12C |
| 1230 nM | CC1(C)CCC[C@](C)([C@H]2CC[C@]3(C)[C@@H]2C(=O)C[C@@H]2[C@@]4(C)CCC(=O)OC(C)(C)[C@@H]4[C@@H](O)C[C@]23C)O1 |
| 260 nM | COC(=O)CC[C@]1(C)[C@H]2C[C@@H](O)[C@@H]3[C@@H]([C@@]4(C)CCCC(C)(C)O4)CC[C@@]3(C)[C@]2(C)CC(=O)[C@H]1C(C)(C)O |
| 1130 nM | CC1(C)CCC[C@](C)([C@H]2CC[C@]3(C)[C@@H]2C(=O)C[C@@H]2[C@@]4(C)CCC(=O)OC(C)(C)[C@@H]4C(=O)C[C@]23C)O1 |
| 300 nM | CC1(C)CCC[C@](C)([C@H]2CC[C@]3(C)[C@@H]2[C@H](O)C[C@@H]2[C@@]4(C)CC[C@H](OCc5ccccc5)C(C)(C)[C@@H]4C(=O)C[C@]23C)O1 |
| 910 nM | C=CCO[C@H]1C[C@]2(C)[C@H](C[C@@H](O)[C@@H]3[C@@H]([C@@]4(C)CCCC(C)(C)O4)CC[C@]32C)[C@@]2(C)CCC(=O)C(C)(C)[C@H]12 |
| 1380 nM | CCOC(=O)NC(=S)O[C@H]1CC[C@]2(C)[C@H]3C[C@@H](O)[C@@H]4[C@@H]([C@@]5(C)CCCC(C)(C)O5)CC[C@@]4(C)[C@]3(C)CC(=O)[C@H]2C1(C)C |
| 1180 nM | CC1(C)CCC[C@](C)([C@H]2CC[C@]3(C)[C@@H]2[C@H](O)C[C@@H]2[C@@]4(C)CCC(=O)OC(C)(C)[C@@H]4C(=O)C[C@]23C)O1 |
| 1180 nM | CC1(C)CCC[C@](C)([C@H]2CC[C@]3(C)[C@@H]2[C@H](O)C[C@@H]2[C@@]4(C)CC[C@H](O)C(C)(C)[C@@H]4C(=O)C[C@]23C)O1 |
| 1090 nM | C=C(C)[C@@H]1C(=O)C[C@]2(C)[C@H](C[C@@H](O)[C@@H]3[C@@H]([C@@]4(C)CCCC(C)(C)O4)CC[C@]32C)[C@@]1(C)CCC(=O)OC |
| 770 nM | CC1(C)CCC[C@](C)([C@H]2CC[C@]3(C)[C@@H]2[C@H](O)C[C@@H]2[C@@]4(C)Cc5c([nH]c6ccccc56)C(C)(C)[C@@H]4C(=O)C[C@]23C)O1 |
| 750 nM | C=CCO[C@H]1C[C@]2(C)[C@H](C[C@@H](OCC=C)[C@@H]3[C@@H]([C@@]4(C)CCCC(C)(C)O4)CC[C@]32C)[C@@]2(C)CCC(=O)C(C)(C)[C@H]12 |
| 910 nM | CC1(C)CCC[C@](C)([C@H]2CC[C@]3(C)[C@@H]2[C@H](O)C[C@@H]2[C@@]4(C)Cc5c([nH]c6ccc(F)cc56)C(C)(C)[C@@H]4C(=O)C[C@]23C)O1 |
| 410 nM | CC1(C)CCC[C@](C)([C@H]2CC[C@]3(C)[C@@H]2[C@H](O)C[C@@H]2[C@@]4(C)CCC(=O)NC(C)(C)[C@@H]4C(=O)C[C@]23C)O1 |
| 1140 nM | CCO[C@H]1CC[C@]2(C)[C@H]3C[C@@H](O)[C@@H]4[C@@H]([C@@]5(C)CCCC(C)(C)O5)CC[C@@]4(C)[C@]3(C)CC(=O)[C@H]2C1(C)C |
| 1140 nM | CC1(C)CCC[C@](C)([C@H]2CC[C@]3(C)[C@@H]2[C@H](O)C[C@@H]2[C@@]4(C)CCC(=O)C(C)(C)[C@@H]4[C@@H](O)C[C@]23C)O1 |
| 870 nM | CC1(C)CCC[C@](C)([C@H]2CC[C@]3(C)[C@@H]2[C@H](OCc2ccccc2)C[C@@H]2[C@@]4(C)CCC(=O)C(C)(C)[C@@H]4[C@@H](OCc4ccccc4)C[C@]23C)O1 |
| 540 nM | CC1(C)CCC[C@](C)([C@H]2CC[C@]3(C)[C@@H]2[C@H](O)C[C@@H]2[C@@](C)(CCC(=O)O)CC(=O)C[C@]23C)O1 |
| 360 nM | CC1(C)CCC[C@](C)([C@H]2CC[C@]3(C)[C@@H]2[C@H](O)C[C@@H]2[C@@]4(C)Cc5c([nH]c6ccc(OC(F)(F)F)cc56)C(C)(C)[C@@H]4C(=O)C[C@]23C)O1 |
| 330 nM | CC1(C)CCC[C@](C)([C@H]2CC[C@]3(C)[C@@H]2[C@H](O)C[C@@H]2[C@@]4(C)CCC(=O)C(C)(C)[C@@H]4[C@@H](OCc4ccccc4)C[C@]23C)O1 |
| 450 nM | CC1(C)CCC[C@](C)([C@H]2CC[C@]3(C)[C@@H]2[C@H](O)C[C@@H]2[C@@]4(C)CC[C@H](OCc5ccc(OC(F)(F)F)cc5)C(C)(C)[C@@H]4C(=O)C[C@]23C)O1 |
| 1050 nM | C=CCO[C@H]1CC[C@]2(C)[C@H]3C[C@@H](O)[C@@H]4[C@@H]([C@@]5(C)CCCC(C)(C)O5)CC[C@@]4(C)[C@]3(C)CC(=O)[C@H]2C1(C)C |
| 960 nM | CC1(C)CCC[C@](C)([C@H]2CC[C@]3(C)[C@@H]2[C@H](O)C[C@@H]2[C@@]4(C)CC[C@H](Oc5noc(=O)[nH]5)C(C)(C)[C@@H]4C(=O)C[C@]23C)O1 |
| 760 nM | CC1(C)CCC[C@](C)([C@H]2CC[C@]3(C)[C@@H]2C(=O)C[C@@H]2[C@@]4(C)CCC(=O)C(C)(C)[C@@H]4C(=O)C[C@]23C)O1 |
| 810 nM | CC1(C)CCC[C@](C)([C@H]2CC[C@]3(C)[C@@H]2[C@H](O)C[C@@H]2[C@@]4(C)CCC(=O)C(C)(C)[C@@H]4C(=O)C[C@]23C)O1 |

| SMILES | IC50 |
| --- | --- |
| CC1(C)CCC[C@](C)([C@H]2CC[C@]3(C)[C@@H]2[C@H](O)C[C@@H]2[C@@]4(C)CC[C@H](O)C(C)(C)[C@@H]4[C@@H](O)C[C@]23C)O1 [PANAXATRIOL] | 1090 nM |

System: not listed separately
Assay: Arrhythmogenic activity in Langendorff-perfused heart rat model at 0.26 umol/L administered for 30 mins following 60 mins perfusion with K-H solution
Format: toxicity, tissue-based
Details: 0.5 h, 0.26 µM

| SMILES | Activity |
| --- | --- |
| COC(=O)CC[C@]1(C)[C@H]2C[C@@H](O)[C@@H]3[C@@H]([C@@]4(C)CCCC(C)(C)O4)CC[C@@]3(C)[C@]2(C)CC(=O)[C@H]1C(C)(C)O | 0% |
| C[C@H]1O[C@@H](O[C@H]2[C@@H](O)C[C@H](O[C@H]3[C@@H](O)C[C@H](O[C@H]4CC[C@@]5(C)[C@H](CC[C@@H]6[C@@H]5C[C@@H](O)[C@]5(C)[C@@H](C7=CC(=O)OC7)CC[C@]65O)C4)O[C@@H]3C)O[C@@H]2C)C[C@H](O)[C@@H]1O [DIGOXIN] | 50% |
